Data from PMC12019328, “Discovery of an ApoE4-targeted small-molecule SirT1 enhancer for the treatment of Alzheimer’s disease” (Scientific Reports, 2025).
Several values for one entry are separate records, joined by “and”; a condition that tells them apart may be missing. Identical values can stand only once.

How the values were obtained:
[1] = tested on: SirT1 mRNA in Kelly cells; test: SirT1 mRNA in Kelly neuroblastoma cells; format: cell-based, human; settings: 5 µM, 24 h, vs DMSO control
Experimental: Human neuroblastoma ‘Kelly’ cells (genotype APOE3/APOE4) were plated in 96-well plates at 50K cells per well and were grown overnight in RPMI 1640 supplemented with 2 mM Glutamine, 10% FBS and 1% Pen-Strep. Cells were treated with 5 µM DDL-214, -218, or -219; or DMSO vehicle (n = 8 per compound). Twenty-four hours later, medium was removed, cells washed and lysed as described above for N2a-E4 cells.
Total RNA was isolated from cells or brain tissue (Qiagen RNEasy kit). Total RNA (0.5–1.0 µg) mRNA was then converted to cDNA (SuperScript™ III First-Strand Synthesis SuperMix kit; Thermo Fisher), and gene mRNA levels were measured using a gene-specific qRT-PCR Taqman assays (Thermo Fisher). Gene mRNA levels were normalized to GAPDH mRNA levels measured either in the same cDNA sample or in the same qPCR reaction using multiplexing of gene-of-interest/VIC and GAPDH/FAM, normalized by the delta-delta-Ct method.

[2] = Observation of mice behavior in the PK study; format: in vivo; settings: oral gavage 10 or 30 mg/Kg
Experimental: C57BL/6J mice were administered DDL-214, -218, or -219 (n = 3 per compound) by oral gavage at a dose of 30 mg/kg in a volume of 5 mL/Kg based on mouse weight. One hour later, mice were euthanized by pentobarbital over-anesthesia and trans-cardial collection of blood for isolation of plasma by centrifugation at 10,000 x g for 10 min at 4 °C. Brain tissue was collected for analysis, frozen on dry ice and stored at -80 °C before analysis.

[3] = tested on: SirT1 protein in N2a-E4 cells; test: SirT1 protein levels in N2a-E4 cells (AlphaLISA); format: cell-based, murine; settings: N2a-E4 cells, 5 µM, 24 h, vs DMSO control
Experimental: Relative SirT1 mRNA and protein enhancement by racemate DDL-214 and enantiomers DDL-218 and − 219 was determined in murine neuroblastoma cells stably transfected with ApoE4 (N2a-E4)[25]. All test compounds in DMSO were prepared at 2x the final concentration in DMEM supplemented with 10% fetal bovine serum (FBS) and 1% pen-strep (PS) and 50 µL of each loaded into individual wells of a 96-well plate. Previously cultured N2a-E4 were then trypsinized, harvested, centrifuged, and counted; then 50 µL of cell suspension adjusted to 400 cells/µL was added to each well. The plate was then incubated at 37 °C, 5% CO2 for 48 h. Cells were treated with DDL-214, DDL-218, or DDL-219 at 5 µM final then incubated for 24 h. After incubation, the cells were lysed with 50 µL of ice-cold lysis buffer (0.4% SDS, 3.5% Triton X-100, 0.02% sodium deoxycholate, 28 mM TRIS pH 8) complemented with 1X final Halt™ Protease and Phosphatase Inhibitor Cocktail (Thermo Fisher catalog # 78442), placed on ice for 10 min and at -80 °C, followed by 3 freeze/thaw cycles.
An AlphaLISA comprising streptavidin donor beads (Revvity catalog # 6760002 S), biotinylated anti-SirT1 N-terminal antibody (monoclonal 19A7AB4, Abcam catalog # ab110304), and acceptor beads (Revvity catalog # 6772001) conjugated to the anti-SirT1 C-terminal antibody (monoclonal 1F3, Abcam catalog # ab104833) was used to determine SirT1 protein levels. […] The plates were read using an Envision plate reader.
Figure S3B. […] Compound treatment was done at 5 and 50 µM. SirT1 levels were measured by AlphaLISA followed and normalized to protein […]
Brain tissue was homogenized in PBS (pH 7.4) (1: 3 weight(mg)/volume(µL)) and the protein concentration of was determined using the Micro BCA™ Protein Assay Kit (Thermo Fisher Scientific, Cat#23235). […]
The % of the unbound drug (fu,bound) was calculated using the following equation: fu,bound = [normalized peak area in buffer side / normalized peak area in brain side] x 100 Liver Microsome Stability [t1/2 (min)] […]

[4] = In vivo pharmacokinetic analysis, brain levels after oral gavage; design: species or system C57BL/6J mice; settings: for brain levels: single time point one hour, oral gavage 30 mg/Kg, n = 1
Experimental: […] One hour later, mice were euthanized by pentobarbital over-anesthesia and trans-cardial collection of blood for isolation of plasma by centrifugation at 10,000 x g for 10 min at 4 °C. Brain tissue was collected for analysis, frozen on dry ice and stored at -80 °C before analysis.
For LC/MS/MS analysis, tissue samples were homogenized in a bead beater using 5 volumes of ice-cold 80% acetonitrile (1/5; mg of tissue/ µL of 80% ACN). Solutions were clarified by centrifugation (16,000 x g, 5 min) and the supernatants were transferred to new tubes and lyophilized. Samples were reconstituted in 100 µL of 50/50/0.1 (water/acetonitrile/formic acid) before analysis via liquid chromatography-tandem mass spectrometry.
A 6460 triple quadrupole mass spectrometer (Agilent Technologies) coupled to a 1290 Infinity HPLC system (Agilent Technologies) with a Phenomenex analytical column (Kinetex 1.7 μm C18 100 Å 100 × 2.1 mm) was used for HPLC. The HPLC method utilized a mixture of solvent A (99.9/1 water/formic acid) and solvent B (99.9/1 acetonitrile/formic acid) and a gradient was used for the elution of the compounds (min/%B: 0/20, 3/20, 19/99, 20/99, 21/20, 30/20).
An internal standard (IS; Reserpine) was added to every sample to account for compound loss during sample processing. Standards were made in drug naïve brain and plasma with increasing amounts of DDL-214- (S1,S2: 0.1 pmol/ S3,S4: 1 pmol/ S5,S6: 10 pmol/ S7,S8: 100 pmol/ S9,S10: 1000 pmol). The standard curve was made by plotting the amount of each compound per standard vs. the ratio of measured chromatographic peak areas corresponding to DDL-214 (DDL-214 -/Reserpine). The trendline equation was then used to calculate the absolute concentrations of DDL-214/-218/-219 in brain tissue and plasma.

SMILES	SirT1 mRNA [1]	changes in mice behavior indicative of drug-induced toxicity [2]	SirT1 protein levels [3]	brain Cmax ([4]; oral 30 mg/Kg, time course study, 30 mg/kg)	brain Cmax ([4]; oral gavage 10 mg/Kg, wildtype mouse, at one hour, 10 mg/kg)	brain levels ([4]; 30 mg/kg)
CC(N)C(=O)OC(C)(C)Cc1ccncc1 (centres unmarked) [DDL-214]	higher than DMSO control, but the difference was not significant	No notable changes in mice behavior	increased SirT1 protein levels	~ 9400 ng/g and 42.3 µM	1270 ng/g and 5.7 µM	~ 3000 ng/g and 13.5 µM
CC(N)C(=O)OC(C)(C)Cc1ccncc1 (centres unmarked) [DDL-219]		No notable changes in mice behavior				~ 6500 ng/g and 29.2 µM
